Holding throughout (format): cell-based, human
The subject of test [1] is hPSC-NSCs. Nature of the test: RT-PCR expression of dopamine neuron genes in hPSC-NSCs treated with small molecule hits. To be noted: Homo sapiens, Neuron, 336 h, hPSC-NSCs primed 7 days with Purmorphamine and FGF8, small molecule 2.5 μM for two weeks. A digest of the protocol:
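hPSC-NSCs pre-patterned 7 days with Purmorphamine (2 μM) plus FGF8 (100 ng/mL) in NB medium, then treated with compounds at 2.5 μM final for two weeks. Total RNA reverse-transcribed; SYBR Green qPCR for dopaminergic/neuronal markers, relative quantification against a standard curve, normalized to PPIG; mean±s.e.m.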

Test [2] deals with hPSC-NSCs. Nature of the test: Percentage of TH positive cells produced by chemical treatment. The conditions noted are these: chemical treatment 2.5 μM for two weeks. As to the method:
The method specifically involved treating both hESC-H9-NSCs (Invitrogen) and hPSC-NSCs with Purmorphamine (2 μM) and FGF8 (100 ng/mL) in NB medium [NeuroBasal medium, 1× GlutaMAX, 1× N2/B27 Supplement (Invitrogen)] for 7 days. After 7 days of Purmorphamine and FGF8 treatment, the NSCs were dissociated with Accutase (Sigma) and plated 20,000 cells/mL into Matrigel coated 96 well plates and treated with small molecule library (Torcris 1120 Biologically Active Compounds) at 2.5 μM final concentration for two weeks (FIG. 6A). Two weeks after treatment with small molecules, all wells were visually observed and scored based on neurite density and dopamine release. For measuring neurite density, cells were fixed with 4% paraformaldehyde and phase contrast images were acquired using Cellavista Cell Imaging System (Roche Applied Science) from randomly selected fields. Neurite density was measured using the Cellavista density software image processing program. Each experimental condition was done in duplicate wells, and at least three independent experiments were conducted to acquire the final results.
Conditioned medium from the top neurite inducers (Table 1) (wells containing the highest density of neurites compare to control 0.1% DMSO treated) were collected and analyzed using a dopamine ELISA assay (Cosmo Bio). Conditioned medium was collected from samples containing 50,000 cells per well and centrifuged at 3000 RPM to remove cell debris. Supernatant was then collected and analyzed for quantitative determination of dopamine using a commercial dopamine ELISA assay kit (CusaCosmo Bio). Data analysis was performed using the microtiter plate reader (BIO-TEK Synergy 2). The results presented are from three independent experiments (n=3) and represented as mean±standard error of mean (s.e.m.) and statistical analysis was performed using the two-tailed Student's t-test with a confidence level of 95% (α=0.05) with statistical significance of P<0.05. Additionally, total RNA from each well were collected and analyze by RT-PCR for expression of TuJ1, MAP2, TH, GRK2, EN1, DAT, AADC, PAX2, NURR1, PITX3 and LMX1B from hPSC-NSCs (Table 2). […] Analysis of the ELISA data indicated the top small molecule neurite inducers produced higher levels of dopamine than control non-treated cells (1.5 ng/mL). […] The percentages of TH positive cells produced by chemical treatment with Kenpaullone (33%), Guggulsterone (35%), Kynurenic Acid (19%), Immedthridine Dihydrobromide (21%), and Dimaprit Dihydrochloride (18%) were higher than 15% of TH positive cells obtained from hPSC-NSCs differentiated for ≥1 month using a standard dopaminergic differentiation medium (BDNF 20 ng/mL, GDNF 20 ng/mL, cAMP 200 μM, Abscorbic Acid 200 μM, TGFβ3 2 ng/mL and DAPT).

A further test concerns hPSC-derived DA neurons. Nature of the test: Microelectrode array (MEA) recordings of GS-treated neurons. To be noted: day 95 of differentiation, 2.5 μM guggulsterone. The procedure: Extracellular voltage recordings from cultured hPSC-derived DA neurons were made on day 95 of differentiation in NB medium [NeuroBasal medium, 1× GlutaMAX, 1× N2/B27 Supplement (Invitrogen)] supplemented with 2.5 μM guggulsterone at 37° C. using a Muse microelectrode array (MEA) system (Axion Biosystems). The surface of the MEA dishes contained an 8×8 grid (64 electrodes total) of 30 μm diameter round extracellular electrodes composed of nanoporous platinum, with 200 μm inter-polar spacing.
MEA dishes were sterilized by rinsing 3 times in sterile deionized water, once in 70% ethanol and once in 100% ethanol. Dishes were then capped and inverted in a covered petri dish, and baked at 50° C. for 4-5 hr. A polyethyleneimine (PEI) base coating was deposited by adding […] of filtered (0.22 μm filter) 0.1% PEI in sodium borate buffer (15 mM; pH 8.4) to each dish and incubating at room temperature for 1 hr. Immediately following aspiration of the PEI solution, dishes were washed 4× with 1 ml deionized water, and air-dried overnight in a tissue culture hood. […]
Voltage data were sampled simultaneously on all electrodes at 12.5 kHz with a hardware filter bandwidth of 200-5000 Hz, and saved to computer with AxIS software (Axion Biosystems). […] For spike raster plots and inter-spike interval histograms, time-stamps of detected spikes were exported to Neuroexplorer (NEX Technologies). […]

The structures appear in SMILES notation. Read-outs that look alike come from different tables or passages of the source.

Regarding `C/C=C1\C(=O)C[C@H]2[C@@H]3CCC4=CC(=O)CC[C@]4(C)[C@H]3CC[C@]12C` [Guggulsterone], the fold induction at 2.5 µM in the test with hPSC-NSCs [1] (read-out: DDC (AADC) expression by RT-PCR) was 9.82; in the test on hPSC-NSCs [1] (read-out: EN1 expression by RT-PCR) it was 10; in the test on hPSC-NSCs [1] (read-out: KCNJ6 expression by RT-PCR), 0.01; in the test on hPSC-NSCs [1] (read-out: LMX1B expression by RT-PCR), 6.45; in the test with hPSC-NSCs [1] (read-out: MAP2 expression by RT-PCR), 9.05; in the test with hPSC-NSCs [1] (read-out: NR4A2 (NURR1) expression by RT-PCR), 0.53. Further, the fold induction at 2.5 µM with hPSC-NSCs [1] (read-out: PITX3 expression by RT-PCR) is 0.48; in the test with hPSC-NSCs [1] (read-out: Pax2 expression by RT-PCR) it was 0.03; with hPSC-NSCs [1] (read-out: SLC6A3 (DAT) expression by RT-PCR), 1.03; in the test on hPSC-NSCs [1] (read-out: TH1 expression by RT-PCR) it was 10.6; in the test on hPSC-NSCs [1] (read-out: Tubb3 expression by RT-PCR), 6.83. In the test with hPSC-NSCs [2], the “percentage of TH positive cells” value was determined as 35%. Further, the “fraction of the 64 total MEA electrodes showing moderate activity (>5 spikes/min)” value in the test on hPSC-derived DA neurons was “Approximately one third”.
